Assay results: patent US6093732A, “4-hydroxyquinoline-3-carboxamides and hydrazides as antiviral agents” (Pharmacia & Upjohn Company, priority 1998, dated 2000)

Each compound was assayed against T1, HCMV polymerase (Human cytomegalovirus, UniProt P08546) (assay: HCMV polymerase scintillation proximity assay (SPA), modified version). Conditions: CMV polymerase; Table 1; modified assay with 4.5 mM DTT, compounds in 100% DMSO; read-out: Antiviral Selective Polymerase IC50 Values, CMV.
T1 construct: made in house; host or cells: recombinant baculovirus-infected SF-9 cells
Type: biochemical
Protocol: The HCMV polymerase assay is performed using a scintillation proximity assay (SPA) as described in several references, such as N. D. Cook, et al., Pharmaceutical Manufacturing International, pages 49-53 (1992); K. Takeuchi, Laboratory Practice, September issue (1992); U.S. Pat. No. 4,568,649 (1986); which are incorporated by reference herein. Reactions are performed in 96-well plates. The assay is conducted in 100 μl volume with 5.4 mM HEPES (pH 7.5), 11.7 mM KCl, 4.5 mM MgCl2, 0.36 mg/ml BSA, and 90 nM ^3 H-dTTP. Assays are run with and without CHAPS, (3-[(3-Cholamidopropyl)-dimethylammonio]-1-propane-sulfonate) at a final concentration of 2 mM. HCMV polymerase is diluted in enzyme dilution buffer containing 50% glycerol, 250 mM NaCl, 10 mM HEPES (pH 7.5), 100 μg/ml BSA, and 0.01% sodium azide. The HCMV polymerase, which is expressed in recombinant baculovirus-infected SF-9 cells and purified according to literature procedures, is added at 10% (or 10 μl) of the final reaction volume, i.e., 100 μl. Compounds are diluted in 50% DMSO and 10 μl are added to each well. Control wells contain an equivalent concentration of DMSO. Unless noted otherwise, reactions are initiated via the addition of 6 nM biotinylated poly(dA)-oligo(dT) template/primer to reaction mixtures containing the enzyme, substrate, and compounds of interest. Plates are incubated in a 25° C. or 37° C. H2 O bath and terminated via the addition of 40 μl/reaction of 0.5 M EDTA (pH 8) per well. Reactions are terminated within the time-frame during which substrate incorporation is linear and varied depending upon the enzyme and conditions used, i.e., 30 min. for HCMV polymerase. Ten μl of streptavidin-SPA beads (20 mg/ml in PBS/10% glycerol) are added following termination of the reaction. Plates are incubated 10 min. at 37° C., then equilibrated to room temperature, and counted on a Packard Topcount. Linear regressions are performed and IC50 's are calculated using computer software.
A modified version of the above HCMV polymerase assay is performed as described above, but with the following changes: Compounds are diluted in 100% DMSO until final dilution into assay buffer. In the previous assay, compounds are diluted in 50% DMSO. 4.5 mM dithiotherotol (DTT) is added to the polymerase buffer. […] Other viral polymerase assays are performed using procedures similar to those described above.

T1 sequence (P08546 whole entry): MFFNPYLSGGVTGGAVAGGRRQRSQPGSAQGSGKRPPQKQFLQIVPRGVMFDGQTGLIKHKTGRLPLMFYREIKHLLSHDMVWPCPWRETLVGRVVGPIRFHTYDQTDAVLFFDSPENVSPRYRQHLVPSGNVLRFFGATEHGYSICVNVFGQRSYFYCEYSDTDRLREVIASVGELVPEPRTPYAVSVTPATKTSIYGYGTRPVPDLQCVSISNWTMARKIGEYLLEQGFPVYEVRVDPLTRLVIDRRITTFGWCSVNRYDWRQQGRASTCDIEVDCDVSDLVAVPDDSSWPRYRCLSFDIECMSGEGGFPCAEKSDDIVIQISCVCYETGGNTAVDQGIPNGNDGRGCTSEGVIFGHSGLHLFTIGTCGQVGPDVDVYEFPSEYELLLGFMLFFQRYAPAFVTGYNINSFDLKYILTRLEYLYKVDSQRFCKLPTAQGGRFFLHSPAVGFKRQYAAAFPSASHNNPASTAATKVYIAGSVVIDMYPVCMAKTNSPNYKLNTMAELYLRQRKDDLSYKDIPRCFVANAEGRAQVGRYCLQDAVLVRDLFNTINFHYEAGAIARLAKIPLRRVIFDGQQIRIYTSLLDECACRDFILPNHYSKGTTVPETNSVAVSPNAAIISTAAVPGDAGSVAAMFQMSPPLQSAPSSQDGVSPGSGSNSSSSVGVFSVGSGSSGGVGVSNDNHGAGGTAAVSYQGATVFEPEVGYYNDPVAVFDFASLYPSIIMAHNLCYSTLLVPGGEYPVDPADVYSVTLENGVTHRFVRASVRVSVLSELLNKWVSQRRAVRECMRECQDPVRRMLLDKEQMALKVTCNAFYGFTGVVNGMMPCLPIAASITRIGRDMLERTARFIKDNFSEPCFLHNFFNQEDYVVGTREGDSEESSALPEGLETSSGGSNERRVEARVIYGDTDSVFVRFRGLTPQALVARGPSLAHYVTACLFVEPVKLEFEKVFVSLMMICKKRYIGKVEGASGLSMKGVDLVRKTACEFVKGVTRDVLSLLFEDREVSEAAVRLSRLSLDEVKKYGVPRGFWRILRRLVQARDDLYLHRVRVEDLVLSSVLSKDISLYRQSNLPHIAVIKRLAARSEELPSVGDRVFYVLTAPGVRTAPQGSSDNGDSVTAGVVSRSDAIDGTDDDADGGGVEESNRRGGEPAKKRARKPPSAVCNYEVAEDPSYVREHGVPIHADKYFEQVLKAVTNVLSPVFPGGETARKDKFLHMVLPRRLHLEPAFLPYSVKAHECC

Row | Structure (SMILES) | IC50 [µM]
1 | NC(=O)c1cc(F)c2ncc(C(=O)NCc3ccc(Cl)cc3)c(O)c2c1 [Example 184, N^3-(4-Chlorobenzyl)-8-fluoro-4-hydroxy-3,6-quinolinedicarboxamide] | 30.4
2 | COCC#Cc1cc(F)c2ncc(C(=O)NCc3ccc(Cl)cc3)c(O)c2c1 [Example 95, N-(4-Chlorobenzyl)-8-fluoro-4-hydroxy-6-(3-methoxy-1-propynyl)-3-quinolinecarboxamide] | 1.9
3 | O=C(NCc1ccc(Cl)cc1)c1cnc2cc(NS(=O)(=O)c3ccccc3)ccc2c1O [Example 33, N-[(4-Chlorophenyl)methyl]-4-hydroxy-7-[(phenylsulfonyl)-amino]-3-quinolinecarboxamide] | 24.3
4 | O=C(NCc1ccc(Cl)cc1)c1cnc2c(F)cc(S(=O)(=O)NCCC3=CCCCC3)cc2c1O [Example 237, N-(4-chlorobenzyl)-6-({[2-(1-cyclohexen-1-yl)ethyl]amino}-sulfonyl)-8-fluoro-4-hydroxy-3-quinolinecarboxamide] | 6.9
5 | O=C(NCc1ccc(Cl)cc1)c1cnc2c(F)cc(-c3nccs3)cc2c1O [Example 87, N-(4-Chlorobenzyl)-8-fluoro-4-hydroxy-6-(1,3-thiazol-2-yl)-3-quinolinecarboxamide] | 7.9
6 | O=C(NCc1ccc(Cl)cc1)c1cnc2c(F)cc(S(=O)(=O)NCCCNC3CCCCC3)cc2c1O [Example 205, N-(4-chlorobenzyl)-6-({[3-(cyclohexylamino)propyl]amino}sulfonyl)-8-fluoro-4-hydroxy-3-quinolinecarboxamide] | ≥ 50
7 | O=C(NCc1ccc(Cl)cc1)c1cnc2c(F)cc(S(=O)(=O)NCCCBr)cc2c1O [Example 248, 6-{[(3-bromopropyl)amino]sulfonyl}-N-(4-chlorobenzyl)-8-fluoro-4-hydroxy-3-quinolinecarboxamide] | 11.6
8 | O=C(NCc1ccc(Cl)cc1)c1cnc2cc(C#CCO)ccc2c1O [Example 101, N-(4-Chlorobenzyl)-4-hydroxy-7-(3-hydroxy-1-propynyl)-3-quinolinecarboxamide] | 25.8
9 | O=C(NCc1ccc(Cl)cc1)c1cnc2c(F)cc(S(=O)(=O)NCCOc3ccccc3)cc2c1O [Example 256, N-(4-chlorobenzyl)-8-fluoro-4-hydroxy-6-{[(2-phenoxyethyl)amino]sulfonyl}-3-quinolinecarboxamide] | 9.3
10 | O=C(NCc1ccc(Cl)cc1)c1cnc2c(F)cc(C#CCCO)cc2c1O [Example 94, N-(4-Chlorobenzyl)-8-fluoro-4-hydroxy-6-(4-hydroxy-1-butynyl)-3-quinolinecarboxamide] | 5.3
11 | O=C(NCc1ccc(Cl)cc1)c1cnc2c(F)cc(S(=O)(=O)NCc3ccccn3)cc2c1O [Example 199, N-(4-Chlorobenzyl)-8-fluoro-4-hydroxy-6-{[(2-pyridinylmethyl)amino]-sulfonyl}-3-quinolinecarboxamide] | 26.4
12 | O=C(NCc1ccc(Cl)cc1)c1cnc2c(F)cc(CO)cc2c1O [Example 141, N-(4-Chlorobenzyl)-8-fluoro-4-hydroxy-6-(hydroxymethyl)-3-quinolinecarboxamide] | 10.1
13 | N#CCCCC#Cc1cc(F)c2ncc(C(=O)NCc3ccc(Cl)cc3)c(O)c2c1 [Example 89, N-(4-Chlorobenzyl)-6-(5-cyano-1-pentynyl)-8-fluoro-4-hydroxy-3-quinolinecarboxamide] | 7.2
14 | O=C(NCc1ccc(Cl)cc1)c1cnc2c(F)cc(S(=O)(=O)NCCN3CCOCC3)cc2c1O [Example 213, N-(4-chlorobenzyl)-8-fluoro-4-hydroxy-6-{[(2-morpholinoethyl)amino]sulfonyl}-3-quinolinecarboxamide] | 18.9
15 | CN(C)c1ccc2c(O)c(C(=O)NCc3ccc(Cl)cc3)cnc2c1 [Example 27, N-[(4-Chlorophenyl)methyl]-7-(dimethylamino)-4-hydroxy-3-quinolinecarboxamide] | 16
16 | COCCOc1c(F)c(F)cc2c(O)c(C(=O)NCc3ccc(Cl)cc3)cnc12 [Example 84, N-((4-Chlorophenyl)methyl)-6,7-difluoro-4-hydroxy-8-(2-(methoxy)ethoxy)-3-quinolinecarboxamide] | 0.79
17 | O=C(NCc1ccc(Cl)cc1)c1cnc2c(F)cc(S(=O)(=O)NCCc3ccccn3)cc2c1O [Example 217, N-(4-chlorobenzyl)-8-fluoro-4-hydroxy-6-({[2-(2-pyridinyl)ethyl]amino}sulfonyl)-3-quinolinecarboxamide] | 15.2

Row | Structure (SMILES) | IC50 [µM]
18 | CC(C)CCNS(=O)(=O)c1cc(F)c2ncc(C(=O)NCc3ccc(Cl)cc3)c(O)c2c1 [Example 233, N-(4-chlorobenzyl)-8-fluoro-4-hydroxy-6-[(isopentylamino)sulfonyl]-3-quinolinecarboxamide] | 11.2
19 | O=C(NCc1ccc(Cl)cc1)c1cnc2c(F)cc(S(=O)(=O)NCc3cccc(I)c3)cc2c1O [Example 242, N-(4-chlorobenzyl)-8-fluoro-4-hydroxy-6-{[(3-iodobenzyl)amino]sulfonyl}-3-quinolinecarboxamide] | 8.4
20 | O=C(NCc1ccc(Cl)cc1)c1cnc2cc3c(cc2c1O)OCO3 [Example 279, N-(4-Chlorobenzyl)-8-hydroxy[1,3]dioxolo [4,5-g]quinoline-7-carboxamide] | 4.9
21 | O=C(NCc1ccc(Cl)cc1)c1cnc2c(F)cc(S(=O)(=O)NCCNc3cccc4ccccc34)cc2c1O [Example 238, N-(4-chlorobenzyl)-8-fluoro-4-hydroxy-6-({[2-(1-naphthylamino)ethyl]amino}sulfonyl)-3-quinolinecarboxamide] | 1.6
22 | O=C(NCc1ccc(Cl)cc1)c1cnc2c(F)cc(O)cc2c1O [Example 3, N-[(4-Chlorophenyl)methyl]-8-fluoro-4,6-dihydroxy-3-quinoline-carboxamide] | 24
23 | Cc1cc(Cl)cc2c(O)c(C(=O)NCc3ccc(Cl)cc3)cnc12 [Example 167, 6-Chloro-N-[(4-chlorophenyl)methyl]-4-hydroxy-8-methyl-3-quinolinecarboxamide] | 5
24 | O=C(NCc1ccc(Cl)cc1)c1cnc2c(F)c(F)ccc2c1O [Example 18, N-[(4-Chlorophenyl)methyl]-7,8-difluoro-4-hydroxy-3-quinoline-carboxamide] | < 3.1
25 | O=C(NCc1ccc(Cl)cc1)c1cnc2c(F)cc(I)cc2c1O [Example 5, N-[(4-Chlorophenyl)methyl]-8-fluoro-4-hydroxy-6-iodo-3-quinolinecarboxamide] | 5.8
26 | O=C(Nc1ccccc1)OCC#Cc1cc(F)c2ncc(C(=O)NCc3ccc(Cl)cc3)c(O)c2c1 [Example 150, 3-(3-{[(4-Chlorobenzyl)amino]carbonyl}-8-fluoro-4-hydroxy-6-quinolinyl)-2-propynyl phenylcarbamate] | 4.8
27 | O=C(NCc1ccc(Cl)cc1)c1cnc2c(F)cc(CCCO)cc2c1O [Example 110, N-(4-Chlorobenzyl)-8-fluoro-4-hydroxy-6-(3-hydroxypropyl)-3-quinolinecarboxamide] | 0.28
28 | O=C(NCc1ccc(Cl)cc1)c1cnc2c(F)cc(S(=O)(=O)NCC3CCCO3)cc2c1O (stereo not drawn) [Example 208, N-(4-chlorobenzyl)-8-fluoro-4-hydroxy-6-{[(tetrahydro-2-furanylmethyl)amino]sulfonyl}-3-quinolinecarboxamide] | 41.6
29 | O=C(NCc1ccc(Cl)cc1)c1cnc2c(F)cc(CN3CCOCC3)cc2c1O [Example 158, N-(4-Chlorobenzyl)-8-fluoro-4-hydroxy-6-(4-morpholinylmethyl)-3-quinolinecarboxamide] | < 0.78
30 | CC(C)(C)O[PH](=O)OCCCc1ccc2ncc(C(=O)NCc3ccc(Cl)cc3)c(O)c2c1 (stereo not drawn) [Example 270, tert-Butyl 3-(3-{[(4-chlorobenzyl)amino]carbonyl}-4-hydroxy-6-quinolinyl)propyl phosphonate] | 2.8
31 | O=C(NCc1ccc(Cl)cc1)c1cnc2c(F)cc(C#CCCCO)cc2c1O [Example 107, N-(4-Chlorobenzyl)-8-fluoro-4-hydroxy-6-(5-hydroxy-1-pentynyl)-3-quinolinecarboxamide] | 5.4
32 | N#CCc1ccc2ncc(C(=O)NCc3ccc(Cl)cc3)c(O)c2c1 [Example 41, N-[(4-Chlorophenyl)methyl]-6-(cyanomethyl)-4-hydroxy-3-quinolinecarboxamide] | 12.1
33 | O=C(NCc1ccc(Cl)cc1)c1cnc2c(F)cc(S(=O)(=O)NCCO)cc2c1O [Example 229, N-(4-chlorobenzyl)-8-fluoro-4-hydroxy-6-{[(2-hydroxyethyl)amino]sulfonyl}-3-quinolinecarboxamide] | 10.7
